According to patent US10081648B2, “Lipid-based platinum compounds and nanoparticles” (AKAMARA THERAPEUTICS, INC., priority 2013, dated 2018):

How the values were obtained:
[1] = system: MDA-MB-231, SKOV-3, HeLa, SW-620 and HCT-116 cell lines; test: MTT cell viability assay, 72 h; assay type: cell-based, human; settings: for inhibition of cell viability: 0-25 μM concentration range, dose-response relationship; for IC50 compared with oxaliplatin: human cancer cell lines
Procedure: FIGS. 7A-7F show MTT assay results for some exemplary compounds disclosed herein. Graphical representation of MTT assay for the activity of exemplary compounds examined on various human cancer cell lines. […] The IC50 values of compound/oxaliplatin tested in cell-lines are mentioned alongside, in corresponding colors as the cell viability curve.
Cell culture: Mammalian cells were grown in specific culture media, supplemented with 10% fetal bovine serum (FBS) and antibiotics in a humidified environment containing 5% CO2 at 37° C.
Cell viability assay: The effects of supramolecular platinum conjugates on the viability of cancer cells were measured using MTT assay. Cells in 100 μl culture-media were plated in 96-well plates (3000-5000 cells/well) and allowed to adhere overnight in a humidified environment containing 5% CO2 at 37° C. Fresh media (100 μL) containing different concentrations of compounds were added to cells and incubated for 72 hours. Following incubation, cell viability was determined using the MTT assay. The MTT assay measures cell viability through assessment of active mitochondrial dehydrogenase, which converts MTT into water-insoluble purple formazan crystals. Cell viability was plotted as dose-response curves using curve fitting.
The effects of exemplary compounds (compound 25, 26, 27, 28, 31, 48) were evaluated in vitro in comparison with oxaliplatin in breast cancer (MDA-MB-231), ovarian cancer (SKOV-3), cervical cancer (HeLa) and colorectal cancer (SW-620 and HCT-116) cell lines.

MDA-MB-231 cells = test: Cellular uptake of platinum compounds (AAS); assay type: cell-based; settings: 50 μM platinum equivalent, 5 hrs
Procedure: Cells were incubated with 50 μM concentration of platinum compounds for 5 hours. The amount of platinum accumulated in cells was measured by AAS and expressed as ng of platinum accumulated per 10^5 cells.
Cellular uptake of platinum compounds: MDA-MB-231 cells (1×10^6) were seeded in 2 ml media per well of a 6-well plate and grown for 24 hrs. Required volume of compounds was added to achieve a final concentration of 50 μM platinum equivalent per well. Cells were incubated for 5 hrs after adding the compounds, then washed twice with PBS, harvested by trypsinization, resuspended in PBS and counted. Cells were centrifuged and pellets stored at −80° C. until further processing. The cell pellets were digested with 100 μl nitric acid at 70° C. for 4 hours. Following digestion, the samples were diluted in 2% HCl and the quantity of accumulated platinum was determined using Atomic absorption spectroscopy (AAS). The assay was validated using a linear standard curve, generated from serial dilutions of certified stock platinum standard and cellular uptake of platinum was expressed as ng of platinum per 1×10^5 cells.

| SMILES | inhibition of cell viability [1] | IC50 compared with oxaliplatin [1] | cellular uptake of platinum (MDA-MB-231 cells) |
| --- | --- | --- | --- |
| CC(C)CCC[C@@H](C)[C@H]1CCC2C3CC=C4C[C@@H](OCC[N+]5(CC(=O)[O-])CC(=O)[O][Pt]56[NH][C@@H]5CCCC[C@H]5[NH]6)CC[C@]4(C)C3CC[C@@]21C (some centres unmarked) [Compound 25] | significant inhibition of cell viability | lower than oxaliplatin | – |
| CC(C)CCC[C@@H](C)[C@H]1CC[C@H]2[C@@H]3CC=C4C[C@@H](OC(=O)NCC[N+]5(CC(=O)[O-])CC(=O)[O][Pt]56[NH][C@@H]5CCCC[C@H]5[NH]6)CC[C@]4(C)[C@H]3CC[C@]12C (some centres unmarked) [Compound 26] | significant inhibition of cell viability | lower than oxaliplatin | – |
| CC(C)CCC[C@@H](C)[C@H]1CC[C@H]2[C@@H]3CC=C4C[C@@H](OCCNC(=O)C[N+]5(CC(=O)[O-])CC(=O)[O][Pt]56[NH][C@@H]5CCCC[C@H]5[NH]6)CC[C@]4(C)[C@H]3CC[C@]12C (some centres unmarked) [Compound 27] | significant inhibition of cell viability | lower than oxaliplatin | – |
| CC(C)CCC[C@@H](C)[C@H]1CC[C@H]2[C@@H]3CC=C4C[C@@H](OCCOCC[N+]5(CC(=O)[O-])CC(=O)[O][Pt]56[NH][C@@H]5CCCC[C@H]5[NH]6)CC[C@]4(C)[C@H]3CC[C@]12C (some centres unmarked) [Compound 28] | significant inhibition of cell viability | lower than oxaliplatin | – |
| CC(C)CCC[C@@H](C)[C@H]1CC[C@H]2[C@@H]3CC=C4C[C@@H](OCCCC5=CC(=O)[O][Pt]6([NH][C@@H]7CCCC[C@H]7[NH]6)[O]5)CC[C@]4(C)[C@H]3CC[C@]12C [Compound 31] | significant inhibition of cell viability | lower than oxaliplatin | – |
| O=C1[O][Pt]2([NH][C@@H]3CCCC[C@H]3[NH]2)[O]C1=O [oxaliplatin] | – | – | similar |
